Results as given in patent US20240156898A1, “METHODS AND COMPOSITIONS FOR TREATING OCULAR DISORDERS AND DISEASES” (ONL Therapeutics, Inc., priority 2021, published 2024).
Residues, ends and D or L forms follow the SMILES beside them.

Key:
[1] = test system: retinal pigment epithelial cell death; assay: Sodium iodate (NaIO3) challenge study, duration of protection, fluorescein angiography lesion area; settings: rabbit
Experimental: NaIO3 solution: • Challenge Article: NaIO3 • Administration Route: IV • Frequency of Administration: Day 4 (day 7 endpoint), 14 (day 17 endpoint), 28 (day 31 endpoint), 59 (day 61 endpoint), or 78 (day 81 endpoint (rechallenged group)). • Solution: 20 mg/ml in 0.9% Injectable Saline • Dose: 17 or 18 mg/kg body weight
Test System: • Species: Rabbit • Expected Age: Animals were between 3 and 4 months of age • Expected Body Range: Approximately 2.0 Kg, Identification Animals were individually • housed and identified via cage card and ear ID and/or ear tattoo. • Experimental History: Purpose-bred and experimentally naïve at the onset of the study
Intravitreal Injection: • On Day 0, eyes were anesthetized with proparacaine and pupils dilated with tropicamide. Animals were anesthetized with isoflurane vapors to effect. A few drops of Betadine were placed on the eye and then rinsed with ophthalmic eye wash. A clean speculum was placed in the eye (rinsed in Betadine and sterile saline) and the temporal sclera was marked with calipers 3.5 mm from the corneal border. […] In order to reduce the potential for reflux of the test article the needle remained in the vitreous for at least 10 seconds following injection. No reflux was noted on the dosing record.
Model Induction: • A 20 mg/ml solution of NaIO3 was prepared in 0.9% injectable saline aliquoted into 4 batches and frozen at −20° C. For Groups 1-8, 1 batch of NaIO3 was thawed prior to injection. Groups 9-10 were added after the Study was underway therefore a new solution of 20 mg/ml NaIO3 was prepared in 0.9% injectable saline and frozen at −20° C. and thawed prior to injection. Test article and NaIO3 were injected into the left ear.
Animals were weighed and anesthetized with isoflurane vapors to effect. The left ear was shaved and swabbed with 10% alcohol prior to injection. An indwelling catheter was placed in the left marginal ear vein and flushed with 0.9% injectable saline. […]
Data Analysis: • The area of RPE depigmentation is reported as a unitless value provided by the ImageJ software. […] The resulting area was then measured.

[2] = minipig, in vivo
Experimental: Seven animals received a repeat IVT dose at 2 mg/mL (0.1 mg/eye) on Day 90. […] Vitreous humor, retina, and choroid were collected on days 1, 7, 14, 28, and 88.

in vivo = settings: rabbit
Experimental: (§1) Body weights were measured and recorded prior to first dose, approximately weekly (for surviving animals through Week 12), and prior to euthanasia. […] Ophthalmic examinations were performed using the Hackett-McDonald Scoring System on Days 0, 7, 14, 28, 90, 97, 151, and 168. Pharmacokinetic analyses were performed on the vitreous humor concentration data.
(§2) Seven animals received a repeat IVT dose at 2 mg/mL (0.1 mg/eye) on Day 90.
(§3) Vitreous humor, retina, and choroid were collected on days 1, 7, 14, 28, 42, 61, 90, 97, 151, and 168. Eyes were enucleated, snap frozen using liquid nitrogen, and kept on dry ice or frozen at −80° C. until dissected for collection of aqueous humor, vitreous humor, retina, choroid, iris-ciliary body (ICB), and lens.
(§4) To homogenize ocular tissue samples, weighed amounts of control bovine vitreous humor, retina, and choroid were homogenized in USA scientific impact resistant microtubes containing 2.8 mm ceramic beads. Unknown rabbit vitreous humor, retina, and choroid samples were homogenized in USA scientific impact resistant microtubes containing 2.8 mm ceramic beads. Each vitreous humor sample was homogenized after the addition of 5000 microliters (uL) diluent (acetonitrile: water: 1 M hydrochloric acid (70:20:10, v/v/v). Retina tissues were homogenized after the addition of diluent (IPA:NH4OH (1000:1, v/v)) at a 1:5 ratio (parts tissue to parts diluent), and choroid samples were homogenized following addition of diluent at a 1:19 ratio. Tissues were homogenized at 5500 rpm for 3×30 second cycles with 20 second pauses between cycles until homogenized. Choroid went through two runs of homogenization, and retina and vitreous humor samples went through one run of homogenization.
(§5) Preparation of Standards, Unknowns, Blanks, and Blanks with Internal Standard for Vitreous Humor Analysis: • In a polypropylene tube, 10 uL of working calibration standard was added to 90 uL control blank vitreous humor. For blanks and blanks with internal standard, 100 uL of control blank bovine vitreous humor was added. Five hundred (500) uL of acetonitrile: water:1M hydrochloric acid (70:20:10, v/v/v) was added to each standard and 500 uL of acetonitrile: water:1M hydrochloric acid (70:20:10, v/v/v) was added to blanks. Standards and blanks were vortex mixed. One hundred (100) uL of each standard, blank or unknown vitreous humor sample homogenate was then aliquoted. One hundred (100) uL of IPA:NH4OH (1000:1, v/v) was added to each sample. The samples were vortex mixed for 1 minute, then centrifuged for 10 minutes at 4,000 rpm (4° C.). […] Fifty (50.0) uL of acetonitrile:water:1M hydrochloric acid (70:20:10, v/v/v) was added to blank without IS. Two hundred (200) uL of water was added. The samples were then mixed using a multichannel pipette, and supernatant transferred to an autosampler plate for analysis.
(§6) In a 96-well plate, 100 uL of control retina or choroid homogenate was added for calibration samples and unknowns. For blanks and blanks with internal standard, 100 uL of control bovine retina or choroid tissue homogenate was added. […] Twenty (20) uL acetonitrile:water:formic acid (25:75:0.1, v/v/v) was added to each blank without IS sample. Three-hundred (300) uL of IPA:NH4OH (1000:1, v/v) was added to each choroid or retina sample. The samples were then vortex mixed for 5 minutes. The samples were allowed to set for 15 minutes, vortex mixed for an additional minute, and centrifuged for 10 minutes at 4,000 rpm (4° C.).
(§7) Three-hundred-fifty (350) uL of each sample was then aliquoted to a 96-well plate. The samples were dried with nitrogen at 35° C.

[3] = Ocular tissue concentration of ONL1204 after intravitreal injection in rabbit eye (LC-MS/MS); settings: 0.1 mg/eye
Experimental: as §1, §2, §3, §4, §5, §6, §7

## CC[C@H](C)[C@H](NC(=O)[C@H](Cc1ccc(O)cc1)NC(=O)[C@H](CC(N)=O)NC(=O)[C@@H](NC(=O)[C@H](C)NC(=O)CNC(=O)[C@H](CC(C)C)NC(=O)[C@H](Cc1ccc(O)cc1)NC(=O)[C@@H](NC(=O)[C@H](Cc1cnc[nH]1)NC(=O)[C@@H](N)Cc1cnc[nH]1)[C@@H](C)CC)C(C)C)C(=O)N[C@@H](Cc1ccc(O)cc1)C(N)=O [ONL1204] (H-HHIYLGAVNYIY-NH2)
[1]; 100 ug per eye IVT on Day 0, NaIO3 challenge Day 14
  lesion size vs negative controls and vs 25 ug: significantly smaller lesion size
[1]; 100 ug per eye IVT on Day 0, NaIO3 challenge Day 28
  lesion size vs negative control animals and vs 25 ug: significantly smaller lesion size
[1]; 25 or 100 ug per eye IVT on Day 0, NaIO3 challenge Days 4 to 59
  mean lesion size across challenge time points: substantive reduction
[2]
  detection in the vitreous humor across all time points analyzed: detected in the vitreous humor across all time points analyzed
In vivo
  half-life: 280 days
[3]; retina
  tissue level at time at 4032 h: 8.4 ng/g
[3]; retina, Conc. of ONL1204 Retina, single IVT 0.1 mg/eye, Day 1, LLOQ 3.00 ng/g
  tissue level at time at 24 h: 12.7 ng/g
[3]; retina, Conc. of ONL1204 Retina, single IVT 0.1 mg/eye, Day 7, LLOQ 3.00 ng/g
  tissue level at time at 168 h: 85.2 ng/g
[3]; retina, Conc. of ONL1204 Retina, single IVT 0.1 mg/eye, Day 14, LLOQ 3.00 ng/g
  tissue level at time at 336 h: 5.95 ng/g
[3]; vitreous humor, other: intravitreal injection
  half-life: 279 days
